The source of these data is the NIST ThermoML archive (doi:10.1021/acs.jced.6b00781).

The conditions of the data set: Crystal.

Numbers after ± are expanded uncertainties.

Turning to `Oc1ccc2ccccc2c1` [2-hydroxynaphthalene], the Normal melting temperature (DTA) came out at 123.83 ± 2 °C.
For `Oc1cccc2ccccc12` [1-naphthol], under “visual observation”, the Normal melting temperature is 97.39 ± 2 °C.
